Here are results for 16 molecules from ChEMBL document CHEMBL6087477, “G9a/GLP Modulators: Inhibitors to Degraders” (J Med Chem, 2025).

Data set [1] has as its target T1, Histone-lysine N-methyltransferase EHMT1 (Homo sapiens, UniProt Q9H9B1).
T1 sequence (Q9H9B1 whole entry): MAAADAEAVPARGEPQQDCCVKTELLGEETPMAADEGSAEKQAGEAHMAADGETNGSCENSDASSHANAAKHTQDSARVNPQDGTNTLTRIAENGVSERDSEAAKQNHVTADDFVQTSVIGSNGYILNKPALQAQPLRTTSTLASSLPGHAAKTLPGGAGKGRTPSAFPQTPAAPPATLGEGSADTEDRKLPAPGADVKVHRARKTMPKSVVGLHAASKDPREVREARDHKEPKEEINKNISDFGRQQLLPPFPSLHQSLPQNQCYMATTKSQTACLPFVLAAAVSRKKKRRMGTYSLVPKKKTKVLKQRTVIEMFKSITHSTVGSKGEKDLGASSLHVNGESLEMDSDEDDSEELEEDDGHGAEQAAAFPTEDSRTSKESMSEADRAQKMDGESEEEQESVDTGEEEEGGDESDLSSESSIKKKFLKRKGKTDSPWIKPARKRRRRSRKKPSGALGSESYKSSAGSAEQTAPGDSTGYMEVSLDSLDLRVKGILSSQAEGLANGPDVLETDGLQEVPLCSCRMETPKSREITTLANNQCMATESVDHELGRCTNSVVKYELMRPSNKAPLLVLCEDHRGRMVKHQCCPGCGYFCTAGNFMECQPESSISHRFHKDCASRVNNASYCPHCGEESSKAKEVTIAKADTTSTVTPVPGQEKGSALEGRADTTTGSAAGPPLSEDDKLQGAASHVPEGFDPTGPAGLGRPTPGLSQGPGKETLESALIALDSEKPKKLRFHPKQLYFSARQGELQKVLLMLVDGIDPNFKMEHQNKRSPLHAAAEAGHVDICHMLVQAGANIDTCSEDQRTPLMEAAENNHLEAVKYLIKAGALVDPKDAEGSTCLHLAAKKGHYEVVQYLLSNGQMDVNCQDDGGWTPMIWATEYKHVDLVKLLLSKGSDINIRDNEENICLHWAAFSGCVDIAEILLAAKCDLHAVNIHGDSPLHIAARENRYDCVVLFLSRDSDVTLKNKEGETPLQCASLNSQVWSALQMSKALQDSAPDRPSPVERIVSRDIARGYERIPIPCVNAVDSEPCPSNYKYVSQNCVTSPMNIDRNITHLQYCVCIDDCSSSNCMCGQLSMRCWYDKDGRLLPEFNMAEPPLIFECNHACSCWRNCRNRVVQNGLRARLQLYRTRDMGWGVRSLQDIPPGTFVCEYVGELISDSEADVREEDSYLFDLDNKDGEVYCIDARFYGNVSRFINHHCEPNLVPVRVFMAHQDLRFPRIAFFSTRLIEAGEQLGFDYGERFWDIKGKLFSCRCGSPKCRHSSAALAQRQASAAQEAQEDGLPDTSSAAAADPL
The data set can be described thus: Binding affinity to GLP (unknown origin) assessed as inhibition constant.

Data set [2] has as its target T2, Histone-lysine N-methyltransferase EHMT2 (Homo sapiens, UniProt Q96KQ7).
T2 sequence (Q96KQ7 whole entry): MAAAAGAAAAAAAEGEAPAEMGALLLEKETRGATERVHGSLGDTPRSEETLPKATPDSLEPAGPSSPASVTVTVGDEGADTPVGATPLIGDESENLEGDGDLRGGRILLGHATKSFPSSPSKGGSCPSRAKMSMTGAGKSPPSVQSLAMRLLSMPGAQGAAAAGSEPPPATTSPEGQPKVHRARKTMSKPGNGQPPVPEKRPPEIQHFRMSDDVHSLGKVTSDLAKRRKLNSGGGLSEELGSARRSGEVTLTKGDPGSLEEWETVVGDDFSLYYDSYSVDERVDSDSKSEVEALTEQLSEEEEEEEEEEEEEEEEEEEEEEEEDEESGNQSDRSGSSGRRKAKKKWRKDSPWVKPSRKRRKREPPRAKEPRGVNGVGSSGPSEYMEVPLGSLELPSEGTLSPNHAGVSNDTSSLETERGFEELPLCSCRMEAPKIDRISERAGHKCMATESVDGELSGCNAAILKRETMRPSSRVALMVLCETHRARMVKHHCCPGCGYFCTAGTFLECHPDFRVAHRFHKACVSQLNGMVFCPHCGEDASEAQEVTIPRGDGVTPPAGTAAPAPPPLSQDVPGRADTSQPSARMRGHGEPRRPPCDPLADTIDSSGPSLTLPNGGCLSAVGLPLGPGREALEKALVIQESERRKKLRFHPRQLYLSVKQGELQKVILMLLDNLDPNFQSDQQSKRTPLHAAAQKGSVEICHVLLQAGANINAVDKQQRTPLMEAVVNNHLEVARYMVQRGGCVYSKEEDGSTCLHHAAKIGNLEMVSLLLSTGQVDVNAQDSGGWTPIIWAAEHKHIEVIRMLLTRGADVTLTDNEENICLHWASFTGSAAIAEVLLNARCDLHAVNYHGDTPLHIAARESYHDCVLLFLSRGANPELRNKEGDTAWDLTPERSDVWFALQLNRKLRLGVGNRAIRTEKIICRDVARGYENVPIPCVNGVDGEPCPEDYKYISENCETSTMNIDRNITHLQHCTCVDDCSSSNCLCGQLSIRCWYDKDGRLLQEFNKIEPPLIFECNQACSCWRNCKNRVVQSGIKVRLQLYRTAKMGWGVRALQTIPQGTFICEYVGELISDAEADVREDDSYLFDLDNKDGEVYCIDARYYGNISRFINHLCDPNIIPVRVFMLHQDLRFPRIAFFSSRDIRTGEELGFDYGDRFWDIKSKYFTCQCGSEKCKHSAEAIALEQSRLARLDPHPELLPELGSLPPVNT
The data set can be described thus: Inhibition of G9a (unknown origin).

For data set [3], the target named is T2, Histone-lysine N-methyltransferase EHMT2. The experiment in a line: Binding affinity to G9a (unknown origin) assessed as inhibition constant.
The test system of data set [4] is MCF7. The data set can be described thus: Cytotoxicity against human MCF7 cells. In kind it is functional, cell-based.
Data set [5] is described as follows: Antiproliferative activity against human SC1 cells assessed as reduction in cell viability. Type of data set: functional, cell-based. Particulars: SC-1.
Data set [6] deals with MCF7. The data set can be described thus: Antiproliferative activity against human MCF7 cells assessed as reduction in cell viability by sulforhodamine B assay. In kind it is functional, cell-based. In general terms: In SRB staining, fixed cells bind dye roughly in proportion to their protein.
For data set [7], the system named is DOHH-2. The data set can be described thus: Antiproliferative activity against human DOHH-2 cells assessed as reduction in cell viability. Type of data set: functional, cell-based.
Data set [8] deals with DB. The data set can be described thus: Antiproliferative activity against human DB cells assessed as reduction in cell viability. In kind it is functional, cell-based.
Data set [9] has as its system T47D. The data set can be described thus: Antiproliferative activity against human T47D cells assessed as reduction in cell viability by sulforhodamine B assay. In kind it is functional, cell-based.
The test system of data set [10] is SK-BR-3. The experiment in a line: Antiproliferative activity against human SK-BR-3 cells assessed as reduction in cell viability by sulforhodamine B assay. In kind it is functional, cell-based.
The nature of data set [11]: Antiproliferative activity against human WILL-1 cells assessed as reduction in cell viability. In kind it is functional, cell-based.
A short description of data set [12]: Antiproliferative activity against human WSU-FSCCL cells assessed as reduction in cell viability. In kind it is functional, cell-based.
For data set [13], the system named is SU-DHL-8. The data set can be described thus: Antiproliferative activity against human SU-DHL-8 cells assessed as reduction in cell viability. In kind it is functional, cell-based.
Data set [14] deals with T1, Histone-lysine N-methyltransferase EHMT1. The experiment in a line: Inhibition of GLP (unknown origin).
Data set [15] can be described thus: Microsomal stability in mouse liver microsomes assessed as half life incubated upto 60 mins by LC-MS/MS analysis. Type of data set: ADME, Microsome.
Data set [16] is described as follows: Half life in Balb/c mouse at 3 mg/kg, iv. Type of data set: ADME, organism-based. Particulars: in vivo.
Data set [17] in a line: Microsomal stability in human liver microsomes assessed as half life measured for incubated upto 60 mins by LC-MS/MS analysis. In kind it is ADME, Microsome. (In general: Liver microsomes are a subcellular fraction often used to study metabolism.)
Data set [18] deals with T2, Histone-lysine N-methyltransferase EHMT2. The experiment in a line: Inhibition of G9a (unknown origin) using H3 as peptide substrate measured after 20 mins by fluorescence based analysis.
Data set [19] addresses hERG (KCNH2) (Homo sapiens, UniProt Q12809). The experiment in a line: Inhibition of hERG at 30 uM relative to control. Type of data set: toxicity.
Data set [20] in a line: Cmax in mouse at 10 mg/kg, po. In kind it is ADME, organism-based. Particulars: in vivo.
Data set [21] has as its target T1, Histone-lysine N-methyltransferase EHMT1. The experiment in a line: Inhibition of GLP (unknown origin) measured after 20 mins by fluorescence based analysis.

Where only a bound is given, the exact number is not on record here.

Sequence of hERG (KCNH2) (Q12809 whole entry): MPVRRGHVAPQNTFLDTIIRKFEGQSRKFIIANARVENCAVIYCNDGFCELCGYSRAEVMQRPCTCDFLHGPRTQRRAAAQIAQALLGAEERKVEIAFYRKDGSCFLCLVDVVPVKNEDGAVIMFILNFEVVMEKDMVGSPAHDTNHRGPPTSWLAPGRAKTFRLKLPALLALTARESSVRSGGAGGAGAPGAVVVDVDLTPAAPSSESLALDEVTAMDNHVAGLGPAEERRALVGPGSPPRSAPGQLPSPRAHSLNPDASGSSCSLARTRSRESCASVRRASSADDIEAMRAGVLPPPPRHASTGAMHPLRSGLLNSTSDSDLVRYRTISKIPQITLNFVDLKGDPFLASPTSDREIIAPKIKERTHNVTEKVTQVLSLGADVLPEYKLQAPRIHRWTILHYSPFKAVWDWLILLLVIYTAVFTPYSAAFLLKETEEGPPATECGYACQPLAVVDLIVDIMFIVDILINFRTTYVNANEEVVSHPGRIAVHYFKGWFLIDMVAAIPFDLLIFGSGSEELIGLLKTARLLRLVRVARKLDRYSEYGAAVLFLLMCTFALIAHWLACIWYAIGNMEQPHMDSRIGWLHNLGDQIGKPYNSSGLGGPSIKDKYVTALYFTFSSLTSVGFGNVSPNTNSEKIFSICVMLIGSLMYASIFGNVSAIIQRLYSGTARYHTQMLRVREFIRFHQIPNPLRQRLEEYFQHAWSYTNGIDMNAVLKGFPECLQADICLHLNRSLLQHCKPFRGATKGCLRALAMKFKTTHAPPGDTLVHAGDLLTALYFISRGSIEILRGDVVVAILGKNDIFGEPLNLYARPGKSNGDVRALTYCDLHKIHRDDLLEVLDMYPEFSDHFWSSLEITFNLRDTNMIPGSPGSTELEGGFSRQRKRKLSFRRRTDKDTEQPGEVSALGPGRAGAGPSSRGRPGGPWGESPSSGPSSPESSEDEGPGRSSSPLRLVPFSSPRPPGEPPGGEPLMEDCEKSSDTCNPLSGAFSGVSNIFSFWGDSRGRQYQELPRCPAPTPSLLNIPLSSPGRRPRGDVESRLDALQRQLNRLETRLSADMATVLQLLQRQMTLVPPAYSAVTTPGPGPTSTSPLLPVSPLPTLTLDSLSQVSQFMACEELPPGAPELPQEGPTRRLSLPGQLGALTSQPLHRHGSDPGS

As for `COc1cc2c(NC3CCN(C)CC3)nc(N3CCCN(C)CC3)nc2cc1OCCOCCN(C)C`, the results for the Ki in [1] and in [3] were 15 nM and 9 nM, respectively. Besides, the IC50 in data set [2] is less than 15 nM.

Take `COc1cc2c(NC3CCN(C(C)C)CC3)nc(C3CCCCC3)nc2cc1OCCCN1CCCC1`: in data set [4], the EC50 came to 7.6 µM.

In the case of `COc1cc2nc(N3CCN(C)CC3)nc(NC3CCN(Cc4ccccc4)CC3)c2cc1OC`, the IC50 is 3.7 µM in data set [5]; 7.7 µM in data set [6]; 3.3 µM in data set [7]; less than 1000 nM in [8]; 8.5 µM in [9]; 7.7 µM in data set [10]. Moreover, the IC50 was 5.6 µM in data set [11], 3.4 µM in data set [12] and less than 1000 nM in data set [13].

On to `COc1cc2c(NC3CCN(C(C)C)CC3)nc(N3CCOCC3)nc2cc1OCCCN1CCCC1`, for which the IC50 in [14] is less than 2.5 nM.

The molecule `COc1cc2c(NC3CCN(C(C)C)CC3)cc(C3CCCCC3)nc2cc1OCCCN1CCCC1` displayed an IC50 in [14] of 0.7 nM.

`COc1cc2c(NC3CCN(C4CC4)CC3)cc(-c3ccc(C)o3)nc2cc1OCCCN1CCCC1` yielded an IC50 in data set [14] of 22 nM. Besides, the half-life is 36 min in data set [15], 1450 min in data set [16] and more than 144 min in data set [17].

`COc1cc2c(NC3CCN(C)CC3)cc(-c3ccc(C)o3)nc2cc1OCCCN1CCCC1`: half-maximal inhibition in [14] (IC50) required 8 nM. The half-life in [15] was 6 min; in data set [16], 624 min; in data set [17], more than 144 min.

As for `CNc1cc(C)nc(Nc2ccc(OC)c(C3=CCNCCC3)c2)n1`, inhibition in data set [18] was half-maximal at 32.3 nM (IC50).

`COc1cc2c(cc1C1=CCN(C)CCC1)N=C(N)C21CCC1` came in with an inhibition at 30 µM in data set [19] of 1%. The IC50 in data set [18] came to 75.7 nM.

In data set [14], `Cc1c(C(=O)N[C@@H](CCC2CC2)C(=O)Nc2ccc(C#N)cc2)[nH]c2c1C(=O)CC(C)(C)C2` returned an IC50 of 53 nM. Moreover, the highest level in [20] (Cmax) was 42.4 µM.

`CN1C(=O)[C@]23C[C@]4([C@]56C[C@]78SS[C@](CO)(C(=O)N7[C@H]5Nc5ccccc56)N(C)C8=O)c5ccccc5N[C@@H]4N2C(=O)[C@@]1(CO)SS3` displayed an IC50 in data set [2] of 1700 nM.

As for `COc1cc2c(N(C)C3CCN(C(C)C)CC3)nc(C3CCCCC3)nc2cc1OCCCN1CCCC1`, the IC50 in [2] was 5 nM; in [14], more than 10 nM.

Turning to `CN1C(=O)C2C[C@]3([C@]45CC6C(=O)N(C)[C@@H](CO)C(=O)N6[C@H]4Nc4ccccc45)c4ccccc4N[C@@H]3N2C(=O)[C@@H]1CO` (some centres not stated), the IC50 in data set [2] was more than 50000 nM.

Molecule `CN1C(=O)C2C[C@]3([C@]45CC6C(=O)N(C)[C@H](CO)C(=O)N6[C@H]4Nc4ccccc45)c4ccccc4N[C@@H]3N2C(=O)[C@H]1CO` (some centres not stated) had an IC50 in data set [2] of more than 50000 nM.

In data set [19], `COc1cc2c(cc1C1=CCNCCC1)N=C(N)C21CCC1` displayed an inhibition at 30 µM of 5%. The IC50 in [18] and in data set [21] was 33.9 nM each time.

As to `CCN(c1cc(-c2ccc(CN3CCOCC3)cc2)cc(C(=O)NCc2c(C)cc(C)[nH]c2=O)c1C)C1CCOCC1` [TAZEMETOSTAT], the IC50 in data set [2] turned out to be 15 nM.

By Ki is commonly meant the dissociation constant of the complex between target and ligand, obtained from inhibition or displacement. By IC50 is commonly meant the concentration that inhibits the measured activity by half. In general, EC50 refers to the concentration needed to bring the measured effect to its halfway point. A higher EC50 goes with lower potency in that assay. Broadly, the half-life is the time needed for the level to fall by half in the phase considered. A word on the inhibition: it is the change of the read-out against control, counted positive when it falls. High values mean strong suppression, low ones little suppression. A word on the Cmax: it is the highest concentration seen after dosing.
